Results as given in US20070117743A1, “New antitumoral compounds” (priority 2003, published 2007).

Assays:
Assay type in all cases: cell-based, human
[1] = tested on: A-549; assay: SRB colorimetric assay of cell growth and viability, A-549; conditions: 48 hours exposure; for GI50: read-out: GI50 A-549; for CC50: read-out: LC50 A-549
From the text: (§1) The finality of this assay is to interrupt the growth of a “in vitro” tumor cell culture by means a continued exhibition of the cells to the sample to be testing.
(§2) This form of the assay employs 96 well cell culture microplates of 9 mm diameter (Faircloth, 1988; Mosmann, 1983). Most of the cell lines are obtained from American Type Culture Collection (ATCC) derived from different human cancer types.
(§3) Cells are maintained in RPMI 1640 10% FBS, supplemented with 0.1 g/l penicillin and 0.1 g/l streptomycin sulfate and then incubated at 37° C., 5% CO2 and 98% humidity. For the experiments, cells were harvested from subconfluent cultures using trypsin and resuspended in fresh medium before plating.
(§4) Cells are seeded in 96 well microtiter plates, at 5×10^3 cells per well in aliquots of 195 μL medium, and they are allowed to attach to the plate surface by growing in drug free medium for 18 hours. Afterward, samples are added in aliquots of 5 μL in a ranging from 10 to 10^−8 μg/mL, dissolved in DMSO:EtOH:PBS (0.5:0.5:99). After 48 hours exposure, the antitumor effect are measured by the SRB methodology: cells are fixed by adding 50 μL of cold 50% (wt/vol) trichloroacetic acid (TCA) and incubating for 60 minutes at 4° C. Plates are washed with deionized water and dried. One hundred μL of SRB solution (0.4% wt/vol in 1% acetic acid) is added to each microtiter well and incubated for 10 minutes at room temperature. Unbound SRB is removed by washing with 1% acetic acid. Plates are air dried and bound stain is solubilized with Tris buffer. Optical densities are read on a automated spectrophotometric plate reader at a single wavelength of 490 nm.
(§5) The values for mean+/− SD of data from triplicate wells are calculated. Some parameters for cellular responses can be calculated: GI=growth inhibition, TGI=total growth inhibition (cytostatic effect) and LC=cell killing (cytotoxic effect).

[2] = tested on: SK-MEL-28; assay: SRB colorimetric assay of cell growth and viability, SK-MEL-28; conditions: 48 hours exposure; for CC50: read-out: LC50 MEL-28
From the text: as §1, §2, §3, §4, §5

[3] = tested on: HT-29; assay: SRB colorimetric assay of cell growth and viability, HT-29; conditions: 48 hours exposure; for GI50: read-out: GI50 HT-29; for CC50: read-out: LC50 HT-29
From the text: as §1, §2, §3, §4, §5

[4] = tested on: LoVo; assay: SRB colorimetric assay of cell growth and viability, LoVo; conditions: 48 hours exposure; for CC50: read-out: LC50 LOVO
From the text: as §1, §2, §3, §4, §5

[5] = tested on: LoVo-Dox; assay: SRB colorimetric assay of cell growth and viability, LoVo-Dox; conditions: 48 hours exposure; for CC50: read-out: LC50 LOVO-DOX
From the text: as §1
A colorimetric type of assay, using sulforhodamine B (SRB) reaction has been adapted for a quantitative measurement of cell growth and viability [following the technique described by Philip Skehan, et al. (1990), New colorimetric cytotoxicity assay for anticancer drug screening, J. Natl. Cancer Inst., 82:1107-1112].
as §2, §3, §4, §5

[6] = tested on: DU-145; assay: SRB colorimetric assay of cell growth and viability, DU-145; conditions: 48 hours exposure
From the text: as §1, §2, §3, §4, §5

[7] = tested on: IGROV-1; assay: SRB colorimetric assay of cell growth and viability, IGROV-1; conditions: 48 hours exposure
From the text: as §1, §2, §3, §4, §5

[8] = tested on: IGROV-ET; assay: SRB colorimetric assay of cell growth and viability, IGROV-ET; conditions: 48 hours exposure; for CC50: read-out: LC50 IGROV-ET
From the text: as §1, §2, §3, §4, §5

[9] = tested on: HeLa; assay: SRB colorimetric assay of cell growth and viability, HeLa; conditions: 48 hours exposure; for CC50: read-out: LC50 HELA
From the text: as §1, §2, §3, §4, §5

[10] = tested on: HeLa-APL; assay: SRB colorimetric assay of cell growth and viability, HeLa-APL; conditions: 48 hours exposure; for CC50: read-out: LC50 HELA-APL
From the text: as §1, §2, §3, §4, §5

[11] = tested on: K-562; assay: SRB colorimetric assay of cell growth and viability, K-562; conditions: 48 hours exposure; for CC50: read-out: LC50 K-562
From the text: as §1, §2, §3, §4, §5

[12] = tested on: PANC-1; assay: SRB colorimetric assay of cell growth and viability, PANC-1; conditions: 48 hours exposure; for CC50: read-out: LC50 PANC-1
From the text: as §1, §2, §3, §4, §5

SMILES | TGI A-549 [1] [Molar] | GI50 [1] [nM] | CC50 [1] [nM] | GI50 [2] [nM] | TGI MEL-28 [2] [Molar] | CC50 [2] [nM] | TGI HT-29 [3] [Molar] | GI50 [3] [nM] | CC50 [3] [nM] | GI50 [4] [nM] | TGI LOVO [4] [Molar] | CC50 [4] [nM] | GI50 [5] [nM] | TGI LOVO-DOX [5] [Molar] | CC50 [5] [nM] | GI50 [6] [nM] | LC50 (concentration causing 50% net cell kill) [6] [nM] | TGI DU-145 [6] [Molar] | GI50 [7] [nM] | LC50 (concentration causing 50% net cell killing) [7] [nM] | other results
C/C=C1\NC(=O)[C@H](Cc2ccccc2)NC(=O)[C@@H](C(C)C)NC(=O)[C@@H]([C@@H](C)CC)NC(=O)[C@H](NC(=O)[C@H](NC(=O)[C@H](CCCN)NC(=O)[C@H]2CCCN2C(=O)[C@H](NC(=O)[C@@H](NC(=O)[C@@H](NC(=O)CNC(=O)CCCC(C)C)[C@@H](C)O)C(C)C)C(C)C)[C@@H](C)CC)[C@@H](C)OC(=O)[C@H](C(C)C)NC1=O [Compound 33, [Gly^13]-KF] | 3.08E−06 | 982 | 6960 | 6320 | 6.96E−06 | 6960 | 6.96E−06 | 4510 | 6960 | 3990 | 6.96E−06 | 6960 | 4850 | 6.96E−06 | 6960 | 6960 | 6960 | 6.96E−06 | 6960 | 6960 | TGI IGROV [7]: 6.96E−06 Molar; GI50 [8]: 5270 nM; TGI IGROV-ET [8]: 6.96E−06 Molar; CC50 [8]: 6960 nM; GI50 [9]: 954 nM; TGI HELA [9]: 3.22E−06 Molar; CC50 [9]: 6960 nM; GI50 [10]: 6960 nM; TGI HELA-APL [10]: 6.96E−06 Molar; CC50 [10]: 6960 nM; GI50 [11]: 6960 nM; TGI K-562 [11]: 6.96E−06 Molar; CC50 [11]: 6960 nM; GI50 [12]: 385 nM; TGI PANC-1 [12]: 1.70E−06 Molar; CC50 [12]: 5040 nM
C/C=C1\NC(=O)[C@H](Cc2ccccc2)NC(=O)[C@@H](C(C)C)NC(=O)[C@@H]([C@@H](C)CC)NC(=O)[C@H](NC(=O)[C@H](NC(=O)[C@H](CCCN)NC(=O)[C@H]2CCCN2C(=O)[C@H](NC(=O)[C@@H](NC(=O)[C@@H](NC(=O)[C@@H](C)NC(=O)CCCC(C)C)[C@@H](C)O)C(C)C)C(C)C)[C@@H](C)CC)[C@@H](C)OC(=O)[C@H](C(C)C)NC1=O [Compound 34, [D-Ala^13]-KF] | 3.20E−06 | 1980 | 5170 | 1810 | 3.01E−06 | 5000 | 2.32E−06 | 1250 | 4300 | 904 | 1.77E−06 | 2980 | 350 | 9.73E−07 | 2480 | 2210 | 4790 | 3.26E−06 | 1410 | 4030 | TGI IGROV [7]: 2.38E−06 Molar; GI50 [8]: 1580 nM; TGI IGROV-ET [8]: 2.56E−06 Molar; CC50 [8]: 4140 nM; GI50 [9]: 1460 nM; TGI HELA [9]: 2.43E−06 Molar; CC50 [9]: 4060 nM; GI50 [10]: 1590 nM; TGI HELA-APL [10]: 2.63E−06 Molar; CC50 [10]: 4340 nM; GI50 [11]: 1340 nM; TGI K-562 [11]: 2.66E−06 Molar; CC50 [11]: 5250 nM; GI50 [12]: 1280 nM; TGI PANC-1 [12]: 2.58E−06 Molar; CC50 [12]: 5210 nM
C/C=C1\NC(=O)[C@H](Cc2ccccc2)NC(=O)[C@@H](C(C)C)NC(=O)[C@@H]([C@@H](C)CC)NC(=O)[C@H](NC(=O)[C@H](NC(=O)[C@H](CCCN)NC(=O)[C@H]2CCCN2C(=O)[C@H](NC(=O)[C@@H](NC(=O)[C@@H](NC(=O)[C@@H](CC(C)C)NC(=O)CCCC(C)C)[C@@H](C)O)C(C)C)C(C)C)[C@@H](C)CC)[C@@H](C)OC(=O)[C@H](C(C)C)NC1=O [Compound 35, [D-Leu^13]-KF] | 9.58E−07 | 124 | 2650 | 1170 | 2.10E−06 | 3790 | 1.62E−06 | 771 | 3390 | 200 | 8.04E−07 | 2280 | 158 | 3.46E−07 | 871 | 905 | 3530 | 1.79E−06 | 717 | 3240 | TGI IGROV [7]: 1.53E−06 Molar; GI50 [8]: 684 nM; TGI IGROV-ET [8]: 1.49E−06 Molar; CC50 [8]: 3260 nM; GI50 [9]: 878 nM; TGI HELA [9]: 1.74E−07 Molar; CC50 [9]: 3430 nM; GI50 [10]: 13.3 nM; TGI HELA-APL [10]: 1.31E−06 Molar; CC50 [10]: 6700 nM; GI50 [11]: 1230 nM; TGI K-562 [11]: 2.30E−06 Molar; CC50 [11]: 4280 nM; GI50 [12]: 751 nM; TGI PANC-1 [12]: 1.87E−06 Molar; CC50 [12]: 4670 nM
C/C=C1\NC(=O)[C@H](Cc2ccccc2)NC(=O)[C@@H](C(C)C)NC(=O)[C@@H]([C@@H](C)CC)NC(=O)[C@H](NC(=O)[C@H](NC(=O)[C@H](CCCN)NC(=O)[C@H]2CCCN2C(=O)[C@H](NC(=O)[C@@H](NC(=O)[C@@H](NC(=O)[C@@H](Cc2ccccc2)NC(=O)CCCC(C)C)[C@@H](C)O)C(C)C)C(C)C)[C@@H](C)CC)[C@@H](C)OC(=O)[C@H](C(C)C)NC1=O [Compound 36, [D-Phe^13]-KF] | 5.14E−08 | 4.81 | 990 | 154 | 7.21E−07 | 2200 | 1.21E−06 | 398 | 2840 | 136 | 9.63E−07 | 2440 | 300 | 9.63E−07 | 2150 | 266 | 2490 | 6.75E−07 | 144 | 2500 | TGI IGROV [7]: 9.90E−07 Molar; GI50 [8]: 852 nM; TGI IGROV-ET [8]: 1.74E−06 Molar; CC50 [8]: 3550 nM; GI50 [9]: 7.86 nM; TGI HELA [9]: 9.50E−08 Molar; CC50 [9]: 701 nM; GI50 [10]: 81.9 nM; TGI HELA-APL [10]: 6.55E−06 Molar; CC50 [10]: 6550 nM; GI50 [11]: 420 nM; TGI K-562 [11]: 1.25E−06 Molar; CC50 [11]: 2900 nM; GI50 [12]: 6.62 nM; TGI PANC-1 [12]: 2.73E−08 Molar; CC50 [12]: 976 nM
